Consider two compounds from patent publication EP0328089A2, “Reduced size LHRH analogs” (ABBOTT LABORATORIES, priority 1988, dated 1989).

This experiment has as its system plasma LH levels. The experiment is described as follows: Plasma LH level during and after i.v. infusion (Figures 1 and 2). Type of experiment: in vivo. Particulars: mature castrate male rats, plot only, compound characterised in words. From the text:
Figures 1 and 2 illustrate the effect on plasma LH levels in mature castrate male rats during and after i.v. infusion of compounds 20 and 24, respectively.

Molecules are shown by their SMILES. Where a SMILES comes first, the peptide text is derived from it. [ ]: non-standard residue; d: D form. The star is where a group is joined. Propanoyl(3-(1-naphthyl)) = O=C(CCc1cccc2ccccc12)*; Propanoyl(3-indol-3-yl) = O=C(CCc1c[nH]c2ccccc12)*; d2Nal = N[C@H](Cc1ccc2ccccc2c1)C(=O)O

Regarding `CCNC(=O)[C@@H]1CCCN1C(=O)[C@H](CCCNC(=N)N)NC(=O)[C@H](CC(C)C)NC(=O)[C@@H](Cc1ccc2ccccc2c1)NC(=O)[C@H](Cc1ccc(O)cc1)NC(=O)[C@H](CO)NC(=O)CCc1cccc2ccccc12` [compound 20] ({Propanoyl(3-(1-naphthyl))}-SY[d2Nal]LRP-NHEt), the “effect on plasma LH levels” value is recorded as “LHRH antagonist”.

Take `CCNC(=O)[C@@H]1CCCN1C(=O)[C@H](CCCNC(=N)N)NC(=O)[C@H](CC(C)C)NC(=O)[C@@H](Cc1c[nH]c2ccccc12)NC(=O)[C@H](Cc1ccc(O)cc1)NC(=O)[C@H](CO)NC(=O)CCc1c[nH]c2ccccc12` [compound 24, (4-9)[N-(3-(3-Indole)propionyl)-Ser⁴-D-Trp⁶-Pro⁹-NHEt] LHRH] ({Propanoyl(3-indol-3-yl)}-SY[dW]LRP-NHEt): the “effect on plasma LH levels” value is “LHRH agonist”.
